We go through 20 compounds from US10647678B2 (Cancer Research Technology Limited, priority 2015, dated 2020).

Structures are written as SMILES.

The subject of the experiment is HSF1 pathway (HSP72 expression) in SK-OV-3 cells. In words: Cell-based ELISA (Cellisa) assay: HSP72 induction by 17-AAG in SK-OV-3 cells. Particulars: Homo sapiens, compound 1 h before 17-AAG (250 nM), then 18 h, HSP72 antibody, europium counts normalised to protein, 50% inhibitory concentration, read-out: SKOV3 Cellisa. As for the experimental part: U2OS cells (5-8×10^4 cells/mL) or SK-OV-3 cells (5-8×10^4 cells/mL) were seeded into 96-well plates and incubated at 37° C. for 48 h. […] Cells were then incubated for 18 h. The medium was removed washed 2× with PBS and cells were then fixed with fixing solution (4% paraformaldehyde, 0.3% TritonX-100 in PBS) for 30 min at 4° C. The plates were then washed 2× with PBS before blocking with 5% milk for 30 min at 37° C. After washing the plates 4× with 0.1% Tween-20/deionised water, HSP72 antibody (SPA-810, Enzo Life) was added for 1.5 h at 37° C. Following 4× washes, the plates were incubated with europium-labelled anti-mouse antibody (0.6 ug/ml) in Delfia assay buffer (Perkin Elmer) for 1 h at 37° C. After washing the plates, Delfia enhancement solution was added, shaken for 10 min before reading in the Envision plate reader (Perkin-Elmer) with excitation at 340 nm and emission at 615 nm. The plates were washed again before protein determination using the bicinchoninic acid assay (BCA assay, Pierce Biotechnology). The europium counts were normalised for the amount of protein in each well. The 50% inhibitory concentration value of the compound was then calculated.
Background: ELISA stands for enzyme-linked immunosorbent assay.
Turning to `CCN1CCN(Cc2ccc3cc(C(=O)Nc4cc(NC(=O)c5ccc6c(c5)OCCC6)ccc4F)ccc3n2)CC1` [Example 15, N-(5-(Chroman-7-carboxamido)-2-fluorophenyl)-2-((4-ethylpiperazin-1-yl)methyl)quinoline-6-carboxamide], the IC50 was determined as 1000 nM.

`CCN1CCN(Cc2ccc3cc(C(=O)Nc4cc(NC(=O)c5ccc6c(c5)OCC6)ccc4F)ccc3n2)CC1` [Example 17, N-(5-(2,3-Dihydrobenzofuran-6-carboxamido)-2-fluorophenyl)-2-((4-ethylpiperazin-1-yl)methyl)quinoline-6-carboxamide]: the IC50 was determined as 780 nM. Consider `Cc1ccc2cc(C(=O)Nc3cc(NC(=O)c4ccc5c(c4)OCCCO5)ccc3C)ccc2n1` [Example 12, N-(5-(3,4-dihydro-2H-benzo[b][1,4]dioxepine-7-carboxamido)-2-methylphenyl)-2-methylquinoline-6-carboxamide], for which the IC50 was found to be 670 nM. Consider `Cc1ccc2cc(C(=O)Nc3cc(NC(=O)c4ccc5c(c4)CC(C)O5)ccc3C)ccc2n1` (racemic) [Example 5, (rac)-2-Methyl-N-(2-methyl-5-(2-methyl-2,3-dihydrobenzofuran-5-carboxamido)phenyl)quinoline-6-carboxamide], for which the IC50 worked out at 2900 nM. Next, `Cc1ccc2cc(C(=O)Nc3cc(NC(=O)c4ccc5c(c4)OCCC5)ccc3F)ccc2n1` [Example 6, N-(5-(Chroman-7-carboxamido)-2-fluorophenyl)-2-methylquinoline-6-carboxamide]: 2700 nM; `Cc1ccc2cc(C(=O)Nc3cc(NC(=O)c4ccc5c(c4)OCCC5)ccc3Cl)ccc2n1` [Example 7, N-(2-Chloro-5-(chroman-7-carboxamido)phenyl)-2-methylquinoline-6-carboxamide]: 1500 nM; `Cc1ccc2cc(C(=O)Nc3cc(NC(=O)c4ccc5c(c4)CCO5)ccc3C)ccc2n1` [Example 10, N-(5-(2,3-dihydrobenzofuran-5-carboxamido)-2-methylphenyl)-2-methylquinoline-6-carboxamide]: 1800 nM. For `Cc1ccc2cc(C(=O)Nc3cc(NC(=O)c4ccc5c(c4)OCC5)ccc3Cl)ccc2n1` [Example 14, N-(2-Chloro-5-(2,3-dihydrobenzofuran-6-carboxamido)phenyl)-2-methylquinoline-6-carboxamide], the IC50 was 2100 nM. In the case of `Cc1ccc2cc(C(=O)Nc3cc(NC(=O)c4ccc5c(c4)OC(C)C5)ccc3C)ccc2n1` (racemic) [Example 2, (rac)-2-Methyl-N-(2-methyl-5-(2-methyl-2,3-dihydrobenzofuran-6-carboxamido)phenyl)quinoline-6-carboxamide], the IC50 is 3400 nM.

For `O=C(Nc1ccc(Cl)c(NC(=O)c2ccc3nc(CN4CCC4)ccc3c2)c1)c1ccc2c(c1)OCCC2` [Example 20, 2-(Azetidin-1-ylmethyl)-N-(2-chloro-5-(chroman-7-carboxamido)phenyl)quinoline-6-carboxamide], the IC50 is 3800 nM.

Take `Cc1ccc2cc(C(=O)Nc3cc(NC(=O)c4ccc5c(c4)OC(C)CO5)ccc3F)ccc2n1` (centres unmarked) [Example 4, N-(2-Fluoro-5-(3-methyl-2,3-dihydrobenzo[b][1,4]dioxine-6-carboxamido)phenyl)-2-methylquinoline-6-carboxamide]: the IC50 was determined as 8800 nM. For the compound `Cc1ccc2cc(C(=O)Nc3cc(NC(=O)c4ccc5c(c4)OCC5)ccc3C)ccc2n1` [Example 9, N-(5-(2,3-Dihydrobenzofuran-6-carboxamido)-2-methylphenyl)-2-methylquinoline-6-carboxamide], the IC50 stood at 170 nM.

Regarding `Cc1ccc2cc(C(=O)Nc3cc(NC(=O)c4ccc5c(c4)OCO5)ccc3C)ccc2n1` [Example 8, N-(5-(Benzo[d][1,3]dioxole-5-carboxamido)-2-methylphenyl)-2-methylquinoline-6-carboxamide], the IC50 is 130 nM. As to `Cc1ccc2cc(C(=O)Nc3cc(NC(=O)c4ccc5c(c4)OC(C)CO5)ccc3C)ccc2n1` (racemic) [Example 3, (rac)-2-Methyl-N-(2-methyl-5-(3-methyl-2,3-dihydrobenzo[b][1,4]dioxine-6-carboxamido)phenyl)quinoline-6-carboxamide], the IC50 is 4100 nM. For `O=C(Nc1ccc(Cl)c(NC(=O)c2ccc3nc(CN4CCC4)ccc3c2)c1)c1ccc2c(c1)OCC2` [Example 21] the value was 1800 nM. As to `CCN1CCN(Cc2ccc3cc(C(=O)Nc4cc(NC(=O)c5ccc6c(c5)OCC6)ccc4C)ccc3n2)CC1` [Example 16, N-(5-(2,3-Dihydrobenzofuran-6-carboxamido)-2-methylphenyl)-2-((4-ethylpiperazin-1-yl)methyl)quinoline-6-carboxamide], the IC50 is 120 nM. `Cc1ccc2cc(C(=O)Nc3cc(NC(=O)c4ccc5c(c4)OCC5)ccc3F)ccc2n1` [Example 13, N-(5-(2,3-Dihydrobenzofuran-6-carboxamido)-2-fluorophenyl)-2-methylquinoline-6-carboxamide]: the IC50 is 1800 nM. For `Cc1ccc2cc(C(=O)Nc3cc(NC(=O)c4ccc5ccoc5c4)ccc3C)ccc2n1` [Example 11, N-(5-(benzofuran-6-carboxamido)-2-methylphenyl)-2-methylquinoline-6-carboxamide] the value was 880 nM; for `CCN1CCN(Cc2ccc3cc(C(=O)Nc4cc(NC(=O)c5ccc6c(c5)OCC6)ccc4Cl)ccc3n2)CC1` [Example 18, N-(2-Chloro-5-(2,3-dihydrobenzofuran-6-carboxamido)phenyl)-2-((4-ethylpiperazin-1-yl)methyl)quinoline-6-carboxamide], 640 nM; for `O=C(Nc1ccc(F)c(NC(=O)c2ccc3nc(CN4CCC4)ccc3c2)c1)c1ccc2c(c1)OCC2` [Example 19, 2-(Azetidin-1-ylmethyl)-N-(5-(2,3-dihydrobenzofuran-6-carboxamido)-2-fluorophenyl)quinoline-6-carboxamide], 3100 nM.
